Series [1] deals with T1, C-X-C chemokine receptor type 3 (Homo sapiens, UniProt P49682).
T1 sequence (P49682 whole entry): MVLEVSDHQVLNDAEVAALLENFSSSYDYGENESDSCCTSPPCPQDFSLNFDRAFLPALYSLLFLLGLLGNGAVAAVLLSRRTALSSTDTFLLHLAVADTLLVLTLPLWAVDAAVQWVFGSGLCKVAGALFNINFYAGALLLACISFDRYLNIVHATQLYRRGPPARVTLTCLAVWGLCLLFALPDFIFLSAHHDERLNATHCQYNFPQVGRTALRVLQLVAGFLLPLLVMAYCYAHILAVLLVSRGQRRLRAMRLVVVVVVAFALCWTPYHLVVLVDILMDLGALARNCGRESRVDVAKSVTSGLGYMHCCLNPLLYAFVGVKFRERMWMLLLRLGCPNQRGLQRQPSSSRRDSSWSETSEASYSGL
The experiment in a line: Displacement of [125I]-1P10 from human CXCR3 expressed in PBMC after 2 hrs in RPMI buffer by scintillation counting. Background: In a radioligand displacement assay an active substance lowers the binding of a labelled ligand.

The test system of series [2] is Blood. The experiment in a line: Drug level in bleomycin-induced mouse blood at 10 mg/mL, sc. The format is ADME, tissue-based.
The test system of series [3] is Blood. In words: Drug level in bleomycin-induced mouse blood at 3 mg/mL, sc. The format is ADME, tissue-based.
In series [4] the test system is Blood. In words: Drug level in bleomycin-induced mouse blood at 1 mg/mL, sc. The series is classed as ADME, tissue-based.

Each structure is given as a SMILES string.

Our source for the IC50 and Drug uptake values is ChEMBL document CHEMBL1153804, “Optimization of a series of quinazolinone-derived antagonists of CXCR3” (Bioorg Med Chem Lett, 2009).

The IC50 is the concentration that inhibits the measured activity by half. Lower therefore signals greater potency.

`CCOc1ccc(-n2c([C@@H](C)N(Cc3cccnc3)C(=O)Cc3nc4ccc(C(F)(F)F)cc4[nH]3)nc3ccccc3c2=O)cc1` registered an IC50 in series [1] of 210 nM.
Still for that read-out and setting: to `CCOc1ccc(-n2c([C@@H](C)N(C(=O)Cc3ccc(F)c(C(F)(F)F)c3)C3CCOCC3)nc3ncccc3c2=O)cc1` belongs 5 nM; to `CCOc1ccc(-n2c([C@@H](C)N(Cc3cccnc3)C(=O)Cc3ccc(C#N)cc3)nc3ccccc3c2=O)cc1`, 21 nM; to `CCOc1ccc(-n2c([C@@H](C)N(Cc3cccnc3)C(=O)Cc3ccc(F)c(F)c3)nc3ccccc3c2=O)cc1`, 40 nM.
Same read-out and setting: in the case of `CCOc1ccc(-n2c([C@@H](C)N(Cc3cccnc3)C(=O)Cc3ccc(F)c(C(F)(F)F)c3)nc3cccnc3c2=O)cc1` it was 110 nM.
In turn, `CCOc1ccc(-n2c([C@@H](C)N(Cc3cc(C)no3)C(=O)Cc3ccc(F)c(C(F)(F)F)c3)nc3ncccc3c2=O)cc1` came in with an IC50 in series [1] of 2 nM.
`CCOc1ccc(-n2c([C@@H](C)N(C[C@@H]3CCCN3C(C)C)C(=O)Cc3ccc(F)c(C(F)(F)F)c3)nc3ncccc3c2=O)cc1` returned an IC50 in series [1] of 5 nM.
`CCOc1ccc(-n2c([C@@H](C)N(Cc3cccnc3)C(=O)Cc3cc(C(F)(F)F)cc(C(F)(F)F)c3)nc3ccccc3c2=O)cc1`: in series [1], the IC50 was 7 nM.
For `CCOc1ccc(-n2c([C@@H](C)N(Cc3cccnc3)C(=O)Cc3ccc(OC(F)(F)F)cc3)nc3ncccc3c2=O)cc1`, the values for the Drug uptake with Blood [2], in the series on Blood [3] and with Blood [4] were 104 ng/mL, 26 ng/mL and 19 ng/mL, respectively.
In series [1], `CCOc1ccc(-n2c([C@@H](C)N(CC3CCN(C)CC3)C(=O)Cc3ccc(F)c(C(F)(F)F)c3)nc3ncccc3c2=O)cc1` gave a half-inhibitory concentration (IC50) of 2 nM.
In the case of `CCOc1ccc(-n2c([C@@H](C)N(Cc3cccnc3)C(=O)Cc3cc(F)c(F)c(F)c3)nc3ccccc3c2=O)cc1`, the IC50 in series [1] came out at 8 nM.
Compound `CCOc1ccc(-n2c([C@@H](C)N(Cc3cccnc3)C(=O)Cc3cccc(C(F)(F)F)c3)nc3ccccc3c2=O)cc1` yielded a 50% inhibitory concentration (IC50) in series [1] of 11 nM.
Turning to `CCOc1ccc(-n2c([C@@H](C)N(Cc3cccnc3)C(=O)Cc3ccc(F)c(C(F)(F)F)c3)nc3cnccc3c2=O)cc1`, the IC50 in series [1] turned out to be 32 nM.
As to `CCOc1ccc(-n2c([C@@H](C)N(Cc3cccnc3)C(=O)Cc3ccc(F)c(C(F)(F)F)c3)nc3nccnc3c2=O)cc1`, the IC50 in series [1] worked out at 42 nM.
As to `CCOc1ccc(-n2c([C@@H](C)N(C(=O)Cc3ccc(F)c(C(F)(F)F)c3)C3CCN(C(C)=O)CC3)nc3ncccc3c2=O)cc1`, the IC50 in series [1] amounted to 6 nM.
`CCOc1ccc(-n2c([C@@H](C)N(C[C@H]3CCCN3)C(=O)Cc3ccc(F)c(C(F)(F)F)c3)nc3ncccc3c2=O)cc1` showed an IC50 in series [1] of 2 nM.
In series [1], `CCOc1ccc(-n2c([C@@H](C)N(C[C@H]3CCCN3C(C)C)C(=O)Cc3ccc(F)c(C(F)(F)F)c3)nc3ncccc3c2=O)cc1` displayed an IC50 of 2 nM.
Turning to `CCOc1ccc(-n2c([C@@H](C)N(Cc3cccnc3)C(=O)Cc3ccc(F)c(C(F)(F)F)c3)nc3ncccc3c2=O)cc1`, the IC50 in series [1] worked out at 5 nM.
As for `CCOc1ccc(-n2c([C@@H](C)N(Cc3ccc[n+]([O-])c3)C(=O)Cc3ccc(OC(F)(F)F)cc3)nc3ncccc3c2=O)cc1`, the IC50 in series [1] amounted to 4 nM. The Drug uptake is 19 ng/mL in the series on Blood [3] and 14 ng/mL in the series on Blood [4].
On to `CCOc1ccc(-n2c([C@@H](C)N(Cc3cccnc3)C(=O)CN3CCN(CCC(F)(F)F)CC3)nc3ccccc3c2=O)cc1`, for which the concentration for half-maximal inhibition (IC50) in series [1] turned out to be 690 nM.
In the case of `CCOc1ccc(-n2c([C@@H](C)N(Cc3cccnc3)C(=O)CCc3ccc(C(F)(F)F)cc3)nc3ccccc3c2=O)cc1`, the IC50 in series [1] came out at 2090 nM.
Consider `CCOc1ccc(-n2c([C@@H](C)N(C(=O)Cc3ccc(F)c(C(F)(F)F)c3)C3CCN(C(C)C)CC3)nc3ncccc3c2=O)cc1`, for which, in series [1], the IC50 stood at 1 nM.
Consider `CCOc1ccc(-n2c([C@@H](C)N(Cc3cccnc3)C(=O)Cc3ccc(S(C)(=O)=O)cc3)nc3ccccc3c2=O)cc1`, for which the IC50 in series [1] worked out at 770 nM.
`CCOc1ccc(-n2c([C@@H](C)N(Cc3cccnc3)C(=O)Cn3cnc(C(F)(F)F)c3)nc3ccccc3c2=O)cc1` gave an IC50 in series [1] of 7 nM.
